Here are results for 102 compounds from PubChem BioAssay AID1549 (Sanford-Burnham Center for Chemical Genomics, 2009).

Each structure is given as a SMILES string. Activity calls are given as the source filed them. How the calls were made is not given here. Bounds are passed on as bounds.

For orientation: Kd means a measure of binding affinity in units of concentration.

In the experiment the target is Influenza A virus M2 proton channel (A/TW/4845/1999 H1N1). As to the kind of experiment: NMR binding screen, influenza A virus M2 proton channel, Kd (AID 1549). The settings on record: M2 protein.
As for `CNC(=O)C1CC(=O)N(c2ccc(O)cc2)C1` (configuration not stated), the Kd was > 4 mM (inactive).
The result for `O=C(NCc1ccccc1F)c1cccs1` reads > 4 mM (inactive).
For `C=C(C)[C@H]1Cc2c(ccc3c2O[C@@H]2COc4cc(OC)c(OC)cc4[C@@H]2C3=O)O1` the value was > 4 mM (inactive); for `CC(=O)c1cc(-c2nc3ccccc3n2C)n(C)c1`, > 4 mM (inactive); for `Cc1ccc(N2C(=O)CC(Sc3ncn[nH]3)C2=O)cc1` (configuration not stated), > 4 mM (inactive).
The result for `Cn1nnc2cc(CO)ccc21` reads > 4 mM (inactive); that for `CC(N)C(=O)c1ccco1` (configuration not stated), > 4 mM (inactive); that for `CSc1nc(NC(C)C)nc(N2CCOCC2)n1`, > 4 mM (inactive).
Regarding `CC(=O)Nc1ccncc1NC(C)=O`, the Kd was > 4 mM (inactive).
The result for `CC(=O)Nc1ccc(S(=O)(=O)NCC2CCCO2)cc1` (configuration not stated) reads > 4 mM (inactive); that for `O=C(Cc1cccs1)N1CCOCC1`, > 4 mM (inactive).
The result for `CN1CCN(C(=O)c2ccco2)CC1` reads > 4 mM (inactive).
With `Oc1cnc2ccccc2c1CN1CCOCC1`, the Kd was > 4 mM (inactive).
For `CC(=O)O[C@@H]1CC2C(C)(C)[C@H](O)CC[C@]2(C)C2CC[C@@]3(C)[C@H](c4ccoc4)OC(=O)C4OC43[C@@]21C` (some centres not stated) the value was > 4 mM (inactive); for `c1ccc2c(NC3=NCCS3)cccc2c1`, > 4 mM (inactive).
Regarding `Cc1cc(C(=O)N2CCN(c3ncccn3)CC2)cs1`, the Kd was > 4 mM (inactive).
For the compound `Cc1nnc(NCCN2CCOCC2)[nH]c1=O`, the Kd is > 4 mM (inactive).
The result for `CN1CCC(NC(=O)c2cnccn2)CC1` reads > 4 mM (inactive); that for `O=C(Nc1cccc2cccnc12)c1cccnc1`, > 4 mM (inactive); that for `Cc1oc(S(=O)(=O)N2CCCCC2)cc1C(=O)O`, > 4 mM (inactive).
As to `CCCc1ncc(C(O)c2cccc3ccccc23)n1C` (configuration not stated), the Kd is > 4 mM (inactive).
As for `O=C(O)c1ccc(-c2cnco2)cc1`, the Kd was > 4 mM (inactive).
For `CCOC(=O)c1c[nH]c2c(F)cccc2c1=O` the value was > 4 mM (inactive).
For `NC(=O)c1ccc(-c2ccccn2)s1` the value was > 4 mM (inactive).
As for `O=C1CS/C(=N/N=C/c2cccs2)N1`, the Kd is > 4 mM (inactive).
For `NCC(N)C(=O)c1ccccc1` (configuration not stated) the value was > 4 mM (inactive); for `O=C1c2ccccc2C(=O)N1Cc1ccco1`, > 4 mM (inactive).
For `COC(=O)CC1C(C)(C)C(OC(C)=O)[C@@H]2[C@@H](OC(C)=O)[C@]34O[C@@]2(O)[C@]1(C)C3CC[C@]1(C)C4=CC(=O)O[C@H]1c1ccoc1` (some centres not stated) the value was > 4 mM (inactive).
The result for `O=C(Nc1cccnc1)c1c(F)cccc1F` reads > 4 mM (inactive); that for `C[C@H]1[C@H](C)CC[C@]2(CO)CC[C@]3(C)C(=CCC4[C@@]5(C)CC[C@H](O)C(C)(C)C5CC[C@]43C)[C@H]12` (some centres not stated), > 4 mM (inactive).
Regarding `O=C(O)CCC(=O)c1cccc2ccccc12`, the Kd was > 4 mM (inactive).
As to `CC(=O)Nc1cc(C(N)=O)cc(C(N)=O)c1`, the Kd was > 4 mM (inactive).
`Cc1c(C(=O)Nc2ccncc2)oc2c1C(=O)CC(C)(C)C2`: the Kd is > 4 mM (inactive).
As to `O=c1[nH]c(=O)c2[nH]cnc2[nH]1`, the Kd was > 4 mM (inactive).
For `O=C(Oc1ccc2c(c1)CCC2)N1CCOCC1` the value was > 4 mM (inactive); for `NC(=O)c1cccnc1Oc1ccccc1`, > 4 mM (inactive).
For `CC1(C)CC23C(=O)CCC(O)C2(C)CCC13` (configuration not stated) the value was > 4 mM (inactive); for `Cc1nc2ccc(NC(=O)N3CCSCC3)cc2s1`, > 4 mM (inactive).
Take `O=C1CSC(=Nc2ccc(Cl)cc2)N1`: the Kd is > 4 mM (inactive).
Regarding `Cc1oc(-c2ccccc2)cc1C(=O)O`, the Kd was > 4 mM (inactive).
With `Cc1nn(CC(=O)Nc2ccccc2)c(=O)c2ccccc12`, the Kd is > 4 mM (inactive).
`COc1cc(C(=O)O[C@H]2CC[C@@]3(C)[C@@H]4CC[C@H]5[C@]6(O)C[C@H](O)[C@@]7(O)[C@@H](CN8C[C@@H](C)CC[C@H]8[C@@]7(C)O)[C@]6(O)C[C@@]53OC24O)cc(OC)c1OC`: the Kd is > 4 mM (inactive).
For `CC(C)c1c(O)c(-c2cc3c(c(C(C)C)c2O)CCC2C(C)(C)CCC[C@]32C)cc2c1CCC1C(C)(C)CCC[C@]21C` (some centres not stated) the value was > 4 mM (inactive).
The result for `COc1cc2c(cc1O)[C@@H](Cc1ccc(O)cc1)[N+](C)(C)CC2` reads > 4 mM (inactive); that for `Cc1cccc(NS(=O)(=O)c2cccs2)n1`, > 4 mM (inactive).
In the case of `Cc1nc2cc(Cl)ccc2n1CCO`, the Kd was > 4 mM (inactive).
Regarding `Cn1c(CN)nc2ccccc21`, the Kd is > 4 mM (inactive).
For `O=C(O)C1Cc2ccccc2N1` (configuration not stated) the value was > 4 mM (inactive); for `CSc1ccc(C(=S)N2CCN(C)CC2)cc1`, > 4 mM (inactive).
The result for `O=C(O)c1ccc2ncccc2c1` reads > 4 mM (inactive); that for `Cc1cc(C)nc(/N=C(/N)N2CCC(C(N)=O)CC2)n1`, > 4 mM (inactive); that for `O=C(O)[C@H](O)[C@@](O)(Cc1ccc(O)cc1)C(=O)O`, > 4 mM (inactive).
For `Cn1nc(C(=O)N2CCOCC2)c2ccccc2c1=O` the value was > 4 mM (inactive).
For `CC(=O)N1CC2(C)CN(C(C)=O)CC(C)(C1)C2O` (configuration not stated), the Kd is > 4 mM (inactive).
For `O=C(CSc1ncn[nH]1)c1ccc2c(c1)OCCO2` the value was > 4 mM (inactive).
As for `O=C(CSc1ncn[nH]1)c1ccccc1`, the Kd was > 4 mM (inactive).
For `Cc1cc(CN2C(=O)c3ccccc3C2=O)on1` the value was > 4 mM (inactive); for `CC1(C)CC[C@]2(C(=O)O)CC[C@]3(C)C(=CCC4[C@@]5(C)CC[C@H](O)[C@@](C)(CO)C5CC[C@]43C)C2C1` (some centres not stated), > 4 mM (inactive).
For `Nc1ccc(S(=O)(=O)N2CCOCC2)cc1` the value was > 4 mM (inactive); for `COC(=O)N1CCN(c2ccc(OC)cc2)CC1`, > 4 mM (inactive).
The result for `O=C(O)c1csc(-c2cccs2)n1` reads > 4 mM (inactive); that for `O=C(Nc1cccc(C(F)(F)F)c1)c1cccnc1`, > 4 mM (inactive).
Regarding `COc1ccc(/C=C/C(=O)O)cc1OC`, the Kd was > 4 mM (inactive).
For the compound `CC(C)=CCC[C@](C)(O)C1CC=C(C)CC1` (some centres not stated), the Kd was > 4 mM (inactive).
As for `CSc1ccc2nnc(-c3cccnc3)n2n1`, the Kd was > 4 mM (inactive).
For `CC(=O)NC1(NC(C)=O)CCN(C)CC1` the value was > 4 mM (inactive); for `COC(=O)c1c(C)c2c(c(C)c1O)OC(=O)c1c(C)c(Cl)c(O)c(Cl)c1O2`, > 4 mM (inactive).
For `CNC(=O)N1CCN(C(=O)NC)CC1` the value was > 4 mM (inactive).
The result for `Cc1sc2nc(SC3CCOC3=O)[nH]c(=O)c2c1C` (configuration not stated) reads > 4 mM (inactive); that for `COCCn1c(SC)nc2c1c(=O)[nH]c(=O)n2C`, > 4 mM (inactive); that for `NCCCCN`, > 4 mM (inactive).
For `COc1ccc(-c2ccc(SCC(N)=O)nn2)cc1`, the Kd was > 4 mM (inactive).
The result for `Cc1ccccc1NC(=O)C1CCC(=O)N1` (configuration not stated) reads > 4 mM (inactive); that for `c1cncc(C(N2CCOCC2)N2CCOCC2)c1`, > 4 mM (inactive).
Turning to `S=C(NCC1CCCO1)NC1CC1` (configuration not stated), the Kd was > 4 mM (inactive).
The result for `O=C1CSC(=O)N1c1cccc(O)c1` reads > 4 mM (inactive).
With `Cc1cc(=O)[nH]c(NCc2cccnc2)n1`, the Kd is > 4 mM (inactive).
For `O=c1cccc2n1C[C@H]1CNCC2C1` the value was > 4 mM (inactive); for `CC(=O)O[C@H]1C[C@@H](OC(C)=O)C(C)(C)C2C[C@@H](OC(C)=O)[C@]3(C)C(CC[C@@]4(C)[C@H](c5ccoc5)OC(=O)[C@H]5O[C@]543)[C@]21C` (some centres not stated), > 4 mM (inactive).
For `CCOc1ccc(C)cc1S(=O)(=O)n1ccnc1`, the Kd is > 4 mM (inactive).
Regarding `CCCCCC/C=C\CCCCCCCc1cccc(O)c1C(=O)O`, the Kd is > 4 mM (inactive).
Regarding `CC(=O)N=c1cccc(NC(C)=O)n1O`, the Kd was > 4 mM (inactive).
Regarding `CN(C)CCCN1CNC(=S)NC1`, the Kd was > 4 mM (inactive).
Take `CN(C)N1C(=O)C2C3C=CC(O3)C2C1=O` (configuration not stated): the Kd is > 4 mM (inactive).
The result for `Cc1cc(N)no1` reads > 4 mM (inactive); that for `O=C(O)CCN1CCOCC1`, > 4 mM (inactive).
For `CC(C)CCCC(C)[C@H]1CCC2C3CC[C@H]4CC(=O)CC[C@]4(C)C3CC[C@@]21C` (some centres not stated) the value was > 4 mM (inactive); for `Nc1c(C(=O)O)sc2ncccc12`, > 4 mM (inactive).
The result for `COc1cc2c(cc1OC)-c1nnnn1C(C)(C)C2` reads > 4 mM (inactive).
Turning to `C=CCSc1[nH]c(=O)cc(C)c1C(N)=O`, the Kd was > 4 mM (inactive).
The result for `CN1CC(=O)N=C1N` reads > 4 mM (inactive).
Consider `COc1cccc2c(=O)n(CC(N)=O)ccc12`, for which the Kd was > 4 mM (inactive).
For `COCc1c(CN)cnc(C)c1N` the value was > 4 mM (inactive); for `O=C(O)Cn1cc(C(=O)C2CC2)c2ccccc21`, > 4 mM (inactive).
The result for `O=C1CCC(=O)N1c1ccc(O)cc1` reads > 4 mM (inactive).
For `CCOC(=O)c1cnn2ccccc12` the value was > 4 mM (inactive).
With `C=CCN1CC[C@]23c4c5ccc(O)c4OC2C(=O)CC[C@@]3(O)[C@H]1C5` (some centres not stated), the Kd is > 4 mM (inactive).
The result for `Cn1cnc2c(Cl)ncnc21` reads > 4 mM (inactive); that for `O=C1N=c2ccccc2=C1c1[nH]c(=S)[nH]c1O`, > 4 mM (inactive).
The result for `Cc1nc(SCC#N)c2c3c(sc2n1)CCC3` reads > 4 mM (inactive); that for `COc1ccccc1Nc1nncc(=O)[nH]1`, > 4 mM (inactive); that for `O=C(Nc1cnccn1)c1cccs1`, > 4 mM (inactive).
